The text below walks through data of patent US20240066138A1, “ANTIBODY-DRUG CONJUGATES, PHARMACEUTICAL COMPOSITIONS, AND THERAPEUTIC APPLICATIONS” (priority 2020, published 2024).

What all share (test): Cell viability assay (CELLCOUNTING-LITE)
Common to all, as to assay type: cell-based

The subject of experiment [1] is Hut78. On the procedure:
(§1) Cancerous cells (5,000/well) were seeded in a culture media in a 96-well flat-bottom plate. A compound was prepared by a 3-fold serial dilution and added into each cell solutions. The cells were incubated for 4 or 5 days at 37° C. under 5% CO2. CELLCOUNTING-LITE was added to each well, mixed, and incubated for 10 min at room temperature. The solution in each cell was transferred to a 96-well white opaque plate for reading.

Experiment [2] has as its system MV4; 11. How it is done:
as §1

Experiment [3] relates to Jurkat. How it is done: as §1
In experiment [4] the test system is T47D. On the procedure:
as §1

In experiment [5] the test system is H226. How it is done: as §1
The test system of experiment [6] is Skov-3. On the procedure: as §1
The subject of experiment [7] is Ramos. On the procedure: as §1
For experiment [8], the system named is RS4; 11. How it is done:
as §1

Experiment [9] has as its system HT29. How it is done: as §1
Experiment [10] concerns MCF7. How it is done:
as §1

The subject of experiment [11] is Raji. On the procedure:
as §1

The test system of experiment [12] is N87. On the procedure: as §1
In experiment [13] the test system is A375. On the procedure:
as §1

Experiment [14] relates to KB. How it is done:
as §1

The subject of experiment [15] is H322. On the procedure:
as §1

In experiment [16] the test system is A431. How it is done:
as §1

Experiment [17] deals with ASPC-1. On the procedure:
as §1

[18] abbreviates: N87 cells, incubated for 4 or 5 days, Table 1, read-out: IC50.

Like-named read-outs stand apart in the source and are kept apart here. Numbered stars: 1 amine (or outer) side, 2 acyl side, 3 side chain; on linkers, the order of the positions; unused ones are H or OH. Square brackets hold non-standard residues; d marks the D form. Peptide text beside a SMILES is read from it. * marks the point of attachment. Exatecan = CC[C@@]1(O)C(=O)OCc2c1cc1n(c2=O)Cc2c-1nc1cc(F)c(C)c3c1c2[C@@H](N*)CC3; Hexanoyl(6-maleimido) = O=C1C=CC(=O)N1CCCCCC(=O)*; NHCH2OCH2CO = O=C(COCN[*:1])[*:2]

Consider `CC[C@@]1(O)C(=O)OCc2c1cc1n(c2=O)Cc2c-1nc1cc(F)c(C)cc1c2C=NOCC(C)CNC(=O)CO` (mixture of isomers) [Compound B3, N-(3-((((E/Z)—((S)-4-Ethyl-8-fluoro-4-hydroxy-9-methyl-3,14-dioxo-3,4,12,14-tetrahydro-1H-pyrano[3′,4′:6,7]indolizino[1,2-b]quinolin-11-yl)methylene)amino)oxy)-2-methyl-propyl)-2-hydroxyacetamide], for which the IC50 (usually the concentration that inhibits the measured activity by half) in [1] (Homo sapiens, HuT78) was found to be 7 nM; in [2] (Homo sapiens, MV4-11), 10 nM; in [3] (Homo sapiens, Jurkat), 1.2 nM; in experiment [4] (Homo sapiens, T47D) it was 1.3 nM; in [5] (Homo sapiens, NCI-H226), 401 nM; in experiment [6] (Homo sapiens, SK-OV-3) it was 3.4 nM. Moreover, the IC50 was determined as 7.2 nM in experiment [7] (Homo sapiens, Ramos); 0.73 nM in experiment [8] (Homo sapiens, RS4-11); 13 nM in [9] (Homo sapiens, HT-29); 21 nM in [10] (Homo sapiens, MCF7); 0.32 nM in experiment [11] (Homo sapiens, Raji); 7 nM in experiment [12]. Also, the IC50 turned out to be 5.9 nM in [13] (Homo sapiens, A-375); 18 nM in [14] (Homo sapiens, KB); 3.9 nM in experiment [15] (NCI-H322); 10 nM in experiment [16] (Homo sapiens, A-431); 25 nM in experiment [17] (Homo sapiens, ASPC1).
Regarding `CC[C@@]1(O)C(=O)OCc2c1cc1n(c2=O)Cc2c-1nc1cc(F)c(C)cc1c2C=NOCCNC(=O)CO` [Compound B1, (S,E/Z)—N-(2-((((4-Ethyl-8-fluoro-4-hydroxy-9-methyl-3,14-dioxo-3,4,12,14-tetrahydro-1H-pyrano[3′,4′:6,7]indolizino[1,2-b]quinolin-11-yl)methylene)amino)oxy)ethyl)-2-hydroxyacetamide], the IC50 in experiment [1] (Homo sapiens, HuT78) is 11 nM; in experiment [2] (Homo sapiens, MV4-11) it was 18 nM; in experiment [3] (Homo sapiens, Jurkat), 3 nM; in experiment [4] (Homo sapiens, T47D), 2.8 nM; in experiment [5] (Homo sapiens, NCI-H226), 153 nM; in experiment [6] (Homo sapiens, SK-OV-3) it was 9.8 nM. Also, the IC50 came to 7.8 nM in [7] (Homo sapiens, Ramos); 1.1 nM in [8] (Homo sapiens, RS4-11); 28 nM in experiment [9] (Homo sapiens, HT-29); 19 nM in [10] (Homo sapiens, MCF7); 0.45 nM in experiment [11] (Homo sapiens, Raji); 11 nM in experiment [12]. The IC50 in [13] (Homo sapiens, A-375) came to 9.4 nM; in [14] (Homo sapiens, KB), 31 nM; in experiment [15] (NCI-H322), 12 nM; in experiment [16] (Homo sapiens, A-431), 18 nM; in experiment [17] (Homo sapiens, ASPC1) it was 54 nM.
Take `CC[C@@]1(O)C(=O)OCc2c1cc1n(c2=O)Cc2c-1nc1cc(F)c(C)cc1c2C=NOCCCNC(=O)CO` [Compound B2, (S,E/Z)—N-(3-((((4-ethyl-8-fluoro-4-hydroxy-9-methyl-3,14-dioxo-3,4,12,14-tetrahydro-1H-pyrano[3′,4′:6,7]indolizino[1,2-b]quinolin-11-yl)methylene)amino)oxy)propyl)-2-hydroxyacetamide]: the IC50 in [1] (Homo sapiens, Hut78 cells, incubated for 4 or 5 days, Table 1, read-out: IC50) was found to be 9.1 nM; in experiment [2] (Homo sapiens, MV4, 11 cells, incubated for 4 or 5 days, Table 1, read-out: IC50), 14 nM; in experiment [3] (Homo sapiens, Jurkat cells, incubated for 4 or 5 days, Table 1, read-out: IC50) it was 2.1 nM; in experiment [4] (Homo sapiens, T47D cells, incubated for 4 or 5 days, Table 1, read-out: IC50), 2.4 nM; in [5] (Homo sapiens, NCI-H226, H226 cells, incubated for 4 or 5 days, Table 1, read-out: IC50), 113 nM; in [6] (Homo sapiens, SK-OV-3, Skov-3 cells, incubated for 4 or 5 days, Table 1, read-out: IC50), 11 nM. Besides, the IC50 was 6.6 nM in experiment [7] (Homo sapiens, Ramos cells, incubated for 4 or 5 days, Table 1, read-out: IC50); 0.88 nM in experiment [8] (Homo sapiens, RS4, 11 cells, incubated for 4 or 5 days, Table 1, read-out: IC50); 16 nM in experiment [9] (Homo sapiens, HT-29, HT29 cells, incubated for 4 or 5 days, Table 1, read-out: IC50); 9.2 nM in experiment [10] (Homo sapiens, MCF7 cells, incubated for 4 or 5 days, Table 1, read-out: IC50); 0.58 nM in [11] (Homo sapiens, Raji cells, incubated for 4 or 5 days, Table 1, read-out: IC50); 9.1 nM in experiment [12] (setting [18]). The half-inhibitory concentration (IC50) came to 6.9 nM in experiment [13] (Homo sapiens, A-375, A375 cells, incubated for 4 or 5 days, Table 1, read-out: IC50); 19 nM in experiment [14] (Homo sapiens, KB cells, incubated for 4 or 5 days, Table 1, read-out: IC50); 12 nM in experiment [15] (NCI-H322, H322 cells, incubated for 4 or 5 days, Table 1, read-out: IC50); 9.8 nM in [16] (Homo sapiens, A-431, A431 cells, incubated for 4 or 5 days, Table 1, read-out: IC50); 40 nM in experiment [17] (Homo sapiens, ASPC1, ASPC-1 cells, incubated for 4 or 5 days, Table 1, read-out: IC50).
Consider `CC[C@@]1(O)C(=O)OCc2c1cc1n(c2=O)Cc2c-1nc1cc(F)c(C)c3c1c2[C@@H](NC(=O)COCNC(=O)CNC(=O)[C@H](Cc1ccccc1)NC(=O)CNC(=O)CNC(=O)CCCCCN1C(=O)C=CC1=O)CC3` [Deruxtecan, reference compound] ({Hexanoyl(6-maleimido)}-GGFG[NHCH2OCH2CO]-Exatecan), for which the IC50 came out at 9.9 nM in experiment [1] (Hut78 cells, incubated for 4 or 5 days, Table 1, read-out: IC50); 6.9 nM in [2] (MV4, 11 cells, incubated for 4 or 5 days, Table 1, read-out: IC50); 2.3 nM in experiment [3] (Jurkat cells, incubated for 4 or 5 days, Table 1, read-out: IC50); 1.9 nM in experiment [4] (T47D cells, incubated for 4 or 5 days, Table 1, read-out: IC50); 388 nM in experiment [5] (H226 cells, incubated for 4 or 5 days, Table 1, read-out: IC50); 9.8 nM in experiment [6] (Skov-3 cells, incubated for 4 or 5 days, Table 1, read-out: IC50). The IC50 in experiment [7] (Ramos cells, incubated for 4 or 5 days, Table 1, read-out: IC50) amounted to 3.8 nM; in experiment [8] (RS4, 11 cells, incubated for 4 or 5 days, Table 1, read-out: IC50) it was 0.65 nM; in experiment [9] (HT29 cells, incubated for 4 or 5 days, Table 1, read-out: IC50), 13 nM; in [10] (MCF7 cells, incubated for 4 or 5 days, Table 1, read-out: IC50), 5.7 nM; in [11] (Raji cells, incubated for 4 or 5 days, Table 1, read-out: IC50), 0.42 nM; in experiment [12] (setting [18]) it was 9.9 nM. The IC50 stood at 3.6 nM in [13] (A375 cells, incubated for 4 or 5 days, Table 1, read-out: IC50); 7.2 nM in experiment [14] (KB cells, incubated for 4 or 5 days, Table 1, read-out: IC50); 8.2 nM in experiment [15] (H322 cells, incubated for 4 or 5 days, Table 1, read-out: IC50); 7.7 nM in [16] (A431 cells, incubated for 4 or 5 days, Table 1, read-out: IC50); 29 nM in experiment [17] (ASPC-1 cells, incubated for 4 or 5 days, Table 1, read-out: IC50).
